Patent US9439438B2 (priority 2011, dated 2016)
Where two headings read alike, the source gives them in different places.

Tests used:
mice [1] = conditions: mouse, in vivo
HeLa cells [2] = test system: HeLa cells
mice [3] = conditions: mouse, in vivo, ip
GPP130 [4] = molecular target: T1, GPP130 (Homo sapiens, UniProt O00461); format: cell-based
T1 sequence (O00461 1-696): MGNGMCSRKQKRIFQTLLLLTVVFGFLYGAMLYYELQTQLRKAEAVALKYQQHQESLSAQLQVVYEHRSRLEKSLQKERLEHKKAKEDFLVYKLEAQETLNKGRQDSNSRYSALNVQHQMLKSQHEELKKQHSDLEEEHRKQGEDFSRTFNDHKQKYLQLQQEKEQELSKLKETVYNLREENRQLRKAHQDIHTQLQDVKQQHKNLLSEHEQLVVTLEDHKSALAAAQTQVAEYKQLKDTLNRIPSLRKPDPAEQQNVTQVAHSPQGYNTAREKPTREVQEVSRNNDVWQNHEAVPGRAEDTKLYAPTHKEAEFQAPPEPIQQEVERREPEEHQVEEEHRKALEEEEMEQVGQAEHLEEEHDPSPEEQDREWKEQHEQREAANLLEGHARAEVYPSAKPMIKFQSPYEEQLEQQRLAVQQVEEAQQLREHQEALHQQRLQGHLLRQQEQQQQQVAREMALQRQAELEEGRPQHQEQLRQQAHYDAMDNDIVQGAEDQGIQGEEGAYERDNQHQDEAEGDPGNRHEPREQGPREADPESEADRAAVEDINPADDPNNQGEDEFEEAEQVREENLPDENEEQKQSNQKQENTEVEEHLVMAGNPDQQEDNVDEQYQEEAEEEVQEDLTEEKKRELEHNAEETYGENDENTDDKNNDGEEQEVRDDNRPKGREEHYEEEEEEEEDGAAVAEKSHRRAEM

GPP130 [5] = molecular target: T1, GPP130; format: cell-based; remark: listed apart in the source
mice [6] = conditions: mouse, in vivo, ip, 100 mg/kg
HeLa cells [7] = format: cell-based
HeLa cells [8] = format: cell-based; remark: listed apart in the source
HeLa cells [9] = test system: HeLa cells; remark: listed apart in the source
[10] = test system: vesicular stomatitis virus G protein; format: cell-based
HeLa cells [11] = format: cell-based; remark: listed apart in the source
HeLa cells [12] = format: cell-based; remark: listed apart in the source
[13] = in vivo; cited from earlier work

[Cl][Mn][Cl] [Mn, MnCl2]
STx1-induced renal damage (kidney histology) (mice [1]): no STx1-induced renal damage
complete protection against lethal STx1 evident (mice [1]): not
health and survival after lethal STx1 (mice [1]): all Mn-treated animals remained healthy and survived
protection against lethal STx1 (mice [1]): Complete protection
STx1 concentration, relative to the LD50, at which 50% cell death was not evident (HeLa cells [2]): > 2000 fold
estimated protection factor (HeLa cells [2]): 3800
protection against STx-induced cell death (HeLa cells [2]): 3800 fold
viability with Mn by itself (HeLa cells [2]): did not compromise viability
apparent LD50 (mice [3]): 125 mg/kg
paralysis and lethality (mice [3]; 100 mg/kg): Paralysis and lethality were not seen at any time
paralysis and lethality (mice [3]; 150 mg/kg): got paralyzed within a few hours and were then euthanized
paralysis and lethality (mice [3]; 250 mg/kg): got paralyzed within minutes and died
paralysis and lethality (mice [3]; 500 mg/kg): got paralyzed within minutes and died
sorting of STxB into endosomal tubules (GPP130 [4]): abolished
GPP130 in cells after Mn (GPP130 [5]): lacked GPP130
STxB reaching the ER (STxB-KDEL) (GPP130 [5]): STxB did not reach the ER
STxB trafficking from the cell surface to the Golgi (GPP130 [5]): STxB accumulated in peripheral punctate structures resembling endosomes
body weight, locomotor activity and demeanor (mice [6]): significantly lost weight, exhibited a depressed, lethargic attitude accompanied with diminished locomotor activity
cholera toxin B-subunit (CTxB) trafficking (HeLa cells [7]): no difference between Mn-treated and control cells
localization or trafficking of GP73, TGN46 and Lamp2 (HeLa cells [8]): did not alter
cell viability (MTT) (HeLa cells [9]): did not affect cell viability
ER-to-cell surface trafficking of vesicular stomatitis virus G protein [10]: did not affect
cellular STxB level (toxin degradation) (HeLa cells [11]): dramatic loss of STxB
time at which STxB is degraded in Mn-treated cells (HeLa cells [11]): 1 to 2 h
epidermal growth factor (EGF) internalization and degradation (HeLa cells [12]): did not affect
clearance from the system [13]: cleared from the system within hours
